{
  "source": "patent US10940150B2",
  "about": "“Thymine derivatives and quinazoline-dione derivatives for the inhibition of HSP27” (TECHNISCHE UNIVERSITAET DRESDEN, priority 2014, dated 2021)",
  "key": {"HSP27 [1]": {"target": "T1, HSP27 (Homo sapiens, UniProt P04792)", "T1 sequence (P04792 whole entry)": "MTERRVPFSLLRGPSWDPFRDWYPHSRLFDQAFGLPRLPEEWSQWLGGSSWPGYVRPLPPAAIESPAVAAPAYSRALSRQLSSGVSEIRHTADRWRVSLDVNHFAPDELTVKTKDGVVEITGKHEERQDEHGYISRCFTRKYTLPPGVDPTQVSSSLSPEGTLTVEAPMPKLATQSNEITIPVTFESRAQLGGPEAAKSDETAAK", "assay": "SpeedScreen gel filtration binding test", "conditions": "PD SpinTraps G-25, detection by mass spectroscopy", "source_text": "For the experimental validation of low-molecular-weight compounds which act as potential HSP27 inhibitors according to the in silico prediction, a method based on gel filtration was employed. The method for detecting molecular bonds using gel filtration was described in 2004 as “SpeedScreen” [Muckenschnabel et al., 2004] and was adapted to meet the requirements of the invention. […] For the separation, PD SpinTraps G-25 from GE Healthcare were used. During the 2-minute centrifugation at 800×g (according to operating instructions), these columns allow molecules with a molecular weight of greater than or equal to 5000 g/mol to pass through, while smaller molecules are retained in the matrix. The target protein HSP27 has a molecular weight of 27000 g/mol and therefore passes through the matrix. […] Non-bound low-molecular-weight compounds are retained by the matrix. Molecules that have passed through the matrix can then be detected by mass spectroscopy. This enables “binders” to be differentiated from “non-binders”. For the experimental validation of low-molecular-weight compounds which act as potential HSP27 inhibitors according to the in silico prediction, a method based on gel filtration was employed. […] Molecules that have passed through the matrix can then be detected by mass spectroscopy. […]"}, "HSP27 [2]": {"target": "T1, HSP27", "assay": "Spectrophotometric protein aggregation assay (citrate synthase, HSP27 chaperone function)", "format": "biochemical", "conditions": "750 μmol/L; 43° C., 500 nm, 1.44 μmol/L CS, 481 nmol/L HSP27", "protocol": "FIG. 1: a spectrophotometric protein aggregation assay at 43° C., a wavelength of 500 nm and a concentrations of the proteins: 1.44 μmol/L citrate synthase (CS), 481 nmol/L HSP27 (HSP) in a 40 mmol/L HEPES buffer (pH 7.4) during treatment with 14 or 28 μmol/L 2-(3-trichlorovinylphenylamino)-1,9-dihydropurin-6-one (CS+HSP+test substance no. 2), with 750 μmol/L BVDU (CS+HSP+BVDU) and without (CS+HSP; reference);\nTo measure the efficacy of the purine derivatives according to the invention, robust experiments for the chaperone function of the HSP27 protein were performed:\nA known client protein (=substrate on which HSP27 acts as a chaperone) of HSP27 is citrate synthase. Citrate synthase is denatured when the temperature increases to 43° C. This heat denaturation is prevented or delayed by the presence of HSP27 [Jakob U, 1993]. By adding the novel active ingredients, their efficacy can thus be measured through the inhibition of the HSP27 chaperone function.\nTo determine the activity (i.e. the effect on the aggregation behaviour of the citrate synthase (CS) after thermal incubation) of 2-(3-trichlorovinylphenylamino)-1,9-dihydropurin-6-one in comparison to BVDU, four different batches containing 1.44 μmol/L CS, 481 nmol/L HSP27 (HSP) in a 40 mmol/L HEPES buffer (pH 7.4) were prepared and BVDU (750 μmol/L) or various concentrations of 2-(3-trichlorovinylphenylamino)-1,9-dihydropurin-6-one (14 μmol/L; 28 μmol/L) were added. The samples were then incubated at 43° C. and the aggregation behaviour of the CS was […] in a spectrometer (PerkinElmer LS55, PerkinElmer Inc.) at a wavelength of 500 nm.\nIt can be seen from FIG. 1 that the protein citrate synthase (graph CS alone) is denatured by increasing the temperature to 43° C. and forms aggregates. The aggregation is measured in the spectrometer at 500 nm (light scattering by protein aggregates). The presence of HSP27 (HSP) counteracts the aggregation (cf. graph, CS+HSP). Since the addition of the test substances (BVDU and 2-(3-trichlorovinylphenylamino)-1,9-dihydropurin-6-one) inhibits the chaperone function of HSP27, the activity of the respective test substance can be determined by measuring the aggregation behaviour of the CS."}, "RPMI-8226 cells": {"system": "RPMI-8226 cells", "assay": "Development of resistance to bortezomib in RPMI-8226 cells", "format": "cell-based"}},
  "data": [
    {"smiles": "CC(=O)c1ccc2c(c1)N(CCCN(C)C)c1ccccc1S2", "note": "[Acepromazine]", "values": [
      {"measurement": "SpeedScreen: passage through Sephadex G-25 matrix bound to HSP27 (binder / non-binder)", "setting": "HSP27 [1]", "value": "tested positively"}
    ]},
    {"smiles": "O=c1[nH]c(=O)n([C@H]2C[C@H](O)[C@@H](CO)O2)cc1/C=C/Br", "note": "[BVDU, (E)-5-(2-bromovinyl)-2′-deoxyuridine]", "values": [
      {"measurement": "effect on chaperone function of HSP27 (CS aggregation)", "setting": "HSP27 [2]", "value": "partially cancels the chaperone function of HSP27"},
      {"measurement": "final cell count", "setting": "RPMI-8226 cells; bortezomib 0.075-0.275 ng/ml + 30 μmol/L BVDU (FIG. 8a), without HSP27 inhibitor 510,000 cells/ml", "value": "340,000 cells/ml"},
      {"measurement": "final cell count", "setting": "RPMI-8226 cells; bortezomib 0.1-0.3 ng/ml + 30 μM/L BVDU (FIG. 6a), without HSP27 inhibitor 950,000 cells/ml", "value": "290,000 cells/ml"},
      {"measurement": "final cell count", "setting": "RPMI-8226 cells; bortezomib 0.1-0.3 ng/ml + 30 μmol/L BVDU (FIG. 7a), without HSP27 inhibitor 950,000 cells/ml", "value": "290,000 cells/ml"}
    ]}
  ]
}
